This is an account of results in patent US20250325542A1, “INHIBITORS OF ANTIMOCROBIAL RESISTANCE AND METHOS USING SAME” (Baylor College of Medicine, priority 2022, published 2025).

In the experiment the target is NDM-1 (Klebsiella pneumoniae, UniProt C7C422). In kind it is biochemical.
Where [1] appears, read: imipenem 40 μM, NDM-1 2 nM, 10 μM ZnSO4.

SMILES strings stand for the structures. Like-named read-outs stand apart in the source and are kept apart here.

Sequence of NDM-1 (C7C422 whole entry, looked up, species assumed): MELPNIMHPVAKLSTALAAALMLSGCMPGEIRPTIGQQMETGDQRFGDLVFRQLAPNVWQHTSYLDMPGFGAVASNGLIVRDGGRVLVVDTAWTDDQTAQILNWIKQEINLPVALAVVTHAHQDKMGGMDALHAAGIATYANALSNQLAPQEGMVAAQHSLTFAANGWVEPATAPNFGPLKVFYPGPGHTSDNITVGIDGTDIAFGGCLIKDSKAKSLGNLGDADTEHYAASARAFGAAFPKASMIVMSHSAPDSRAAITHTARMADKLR

A word on the Ki: it is a measure of affinity in units of concentration, obtained from inhibition or displacement. Higher therefore signals a looser hold on the target. Regarding `CNC(=O)CCc1ccc(CNCc2cccc(NCc3ccc(-c4ccc(C(=O)O)c(O)c4)o3)c2)cc1` [CDD-2335, 2-hydroxy-4-(5-(((3-(((4-(3-(methylamino)-3-oxopropyl)benzyl)amino)methyl)phenyl)amino)methyl)furan-2-yl)benzoic acid], the “fold reduction of potency against NDM-1” value was 4 fold. Under setting [1], this molecule gave a Ki of 13 ± 1.5 µM. `CNC(=O)CCc1ccc(CNCc2cccc(NCc3ccc(-c4ccccc4CC(=O)O)cc3)c2)cc1` [CDD-2336, 2-(4′-(((3-(((4-(3-(methylamino)-3-oxopropyl)benzyl)amino)methyl)phenyl)amino)methyl)-[1,1′-biphenyl]-2-yl)acetic acid] returned a Ki under setting [1] of 144 ± 16 µM. With `CNCc1ccc(-c2ccc(C(=O)O)c(O)c2)o1` [CDD-2363, 2-hydroxy-4-(5-((methylamino)methyl)furan-2-yl)benzoic acid], the Ki was 397 ± 113 µM and the “NDM-1 Ki (μM)” value is listed as “weak potency”.

Turning to `CNC(=O)CCC1CCN(C(=O)c2ccc(CNCc3ccc(O)c(C(=O)O)c3)s2)CC1` [CDD-2371, 2-hydroxy-5-((((5-(4-(3-(methylamino)-3-oxopropyl)piperidine-1-carbonyl)thiophen-2-yl)methyl)amino)methyl)benzoic acid], the Ki under setting [1] was found to be 217 ± 46 µM. Same read-out and setting: in the case of `CNC(=O)C1CCC(C(=O)NCc2ccc(NCc3ccc(O)c(C(=O)O)c3)nc2)CC1` (centres unmarked) [CDD-2395, 2-hydroxy-5-(((5-((4-(methylcarbamoyl)cyclohexane-1-carboxamido)methyl)pyridin-2-yl)amino)methyl)benzoic acid] it was 153 ± 28 µM. With `CNCc1cccc(NCc2ccc(-c3ccc(C(=O)O)cc3)o2)c1` [CDD-2463, 4-(5-(((3-((methylamino)methyl)phenyl)amino)methyl)furan-2-yl)benzoic acid], the Ki was 8.5 µM and the “fold reduction of potency against NDM-1” value stood at 2.5 fold. With `CNCc1cccc(NCc2ccc(-c3ccc(O)c(C(=O)O)c3)o2)c1` [CDD-2510, 2-hydroxy-5-(5-(((3-((methylamino)methyl)phenyl)amino)methyl)furan-2-yl)benzoic acid], the Ki under setting [1] was 60 ± 10 µM. `NCc1cccc(NCc2ccc(-c3cccc(C(=O)O)c3O)o2)c1` [CDD-2567, 3-(5-(((3-(aminomethyl)phenyl)amino)methyl)furan-2-yl)-2-hydroxybenzoic acid] registered a Ki under setting [1] of 24 ± 1.5 µM. Consider `NCc1cccc(NCc2ccc(-c3ccc(C(=O)O)c(O)c3)s2)c1` [CDD-2600, 4-(5-(((3-(aminomethyl)phenyl)amino)methyl)thiophen-2-yl)-2-hydroxybenzoic acid], for which the Ki came to 1.6 ± 0.3 µM and the “fold improvement in potency against NDM-1” value is given as 2 fold. On to `CNCc1cccc(NCc2ccc(-c3cccc(C(=O)O)c3)o2)c1` [CDD-2602, 3-(5-(((3-((methylamino)methyl)phenyl)amino)methyl)furan-2-yl)benzoic acid], for which the Ki under setting [1] was 46 ± 11 µM.

Under setting [1], `NCc1cccc(NCc2ccc(-c3ccc(C(=O)O)c(O)c3)cc2)c1` [CDD-2615, 4′-(((3-(aminomethyl)phenyl)amino)methyl)-3-hydroxy-[1,1′-biphenyl]-4-carboxylic acid] yielded a Ki of 14 ± 1.1 µM. Consider `NCc1cccc(NCc2cc(C(=O)O)cc(-c3ccc(C(=O)O)c(O)c3)c2)c1` [CDD-2897, 5-(((3-(aminomethyl)phenyl)amino)methyl)-3′-hydroxy-[1,1′-biphenyl]-3,4′-dicarboxylic acid], for which the Ki came to 71 ± 37 µM and the “fold reduction of potency against NDM-1” value was “more than 10 fold”. Turning to `CNCc1cccc(NCc2cccc(-c3ccc(C(=O)O)c(O)c3)c2)c1` [CDD-2906, 3-hydroxy-3′-(((3-((methylamino)methyl)phenyl)amino)methyl)-[1,1′-biphenyl]-4-carboxylic acid], under setting [1], affinity was put at a Ki of 11 ± 2 µM. `Cc1cccc(NCc2cccc(-c3ccc(C(=O)O)c(O)c3)c2)c1` [CDD-2907, 3-hydroxy-3′-((m-tolylamino)methyl)-[1,1′-biphenyl]-4-carboxylic acid]: the Ki was > 100 µM and the “NDM-1 Ki (μM)” value is “near-complete loss of potency”.
